Patent US8507533B2, “Glucagon receptor modulators” (Pfizer Inc., priority 2011, dated 2013)

How the values were obtained:
human glucagon receptor [1] = molecular target: T1, human glucagon receptor (Homo sapiens (Human), UniProt P47871); test: Glucagon cAMP Assay (Cisbio cAMP detection); format: cell-based; settings: CHOK1 cells stably transfected with the human glucagon receptor; block of glucagon induced cAMP production; Kb by modified Cheng-Prusoff equation
human glucagon receptor [2] = molecular target: T1, human glucagon receptor; test: Human Glucagon SPA Assay (binding of [125I]Glucagon-Cex); settings: membrane from chem-1 cells stably transfected with the human glucagon receptor, Ki by Cheng-Prusoff equation
Procedure: The Glucagon SPA assay is used to determine the ability of test compounds to block the binding of glucagon-cex to the glucagon receptor. Test compounds are re-suspended and serially diluted in 100% DMSO. 1 μl of test compound at the desired concentrations is spotted into the appropriate wells of 96 well low binding white clear bottom plate (Corning). 1 μl of DMSO is spotted into total binding wells. 1 μl of a known glucagon antagonist at a concentration of 20 μM is added to non specific binding wells. […] All assay ingredients with the exception of test compounds are re-suspended in the following buffer; 50 mM Hepes pH 7.4; 5 mM MgCl2; 1 mM CaCl; 5% glycerol and 0.2% BSA. Following a 6-10 hr incubation at room temperature the amount of hot ligand bound to the cell membranes is determined by reading the plates on a Wallac Trilux radioactive emission detector. Data is analyzed using Pfizer's Data analysis program. IC50 values are then determined from the generated sigmoidal dose response curves. Ki values are calculated using Cheng-Prusoff equation. N is the number of times the compound was assayed.

T1 sequence (P47871 26-477): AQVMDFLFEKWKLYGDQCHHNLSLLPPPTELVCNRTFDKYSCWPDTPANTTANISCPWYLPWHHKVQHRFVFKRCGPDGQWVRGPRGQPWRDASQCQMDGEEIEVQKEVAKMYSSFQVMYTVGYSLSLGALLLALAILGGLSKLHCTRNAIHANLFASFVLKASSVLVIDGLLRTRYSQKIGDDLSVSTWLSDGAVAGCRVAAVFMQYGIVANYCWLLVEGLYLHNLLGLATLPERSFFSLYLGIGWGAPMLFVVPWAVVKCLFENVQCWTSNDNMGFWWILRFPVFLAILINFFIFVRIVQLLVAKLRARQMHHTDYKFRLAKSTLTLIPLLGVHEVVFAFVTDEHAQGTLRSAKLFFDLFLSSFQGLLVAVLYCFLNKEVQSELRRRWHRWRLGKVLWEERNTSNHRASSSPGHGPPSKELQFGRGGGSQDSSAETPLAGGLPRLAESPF

| SMILES | Kb (human glucagon receptor [1]) | Ki (human glucagon receptor [2]) |
| --- | --- | --- |
| CCCC(Nc1ccc(-n2cc(-c3ccccc3)cn2)nc1)c1ccc(C(=O)NCCC(=O)O)cc1 (single isomer, unassigned; isomer 1) [Example 160, 3-(4-(1-(6-(4-phenyl-1H-pyrazol-1-yl)pyridine-3-ylamino)butyl)benzamido)propanoic acid, Isomer 1] | 111 nM | 29 nM |
| CCCC(Nc1ccc(-n2cc(CC)c(C)n2)nc1)c1ccc(C(=O)NCCC(=O)O)cc1 (single isomer, unassigned; isomer 1) [Example 166, 3-(4-(1-(6-(4-ethyl-3-methyl-1H-pyrazol-1-yl)pyridin-3-ylamino)butyl)benzamido)propanoic acid, Isomer 1] | 94.8 nM | 91.5 nM |
| Cc1cc(C(Nc2ccc(C(=O)NCCC(=O)O)cn2)C2CCCC2)cc(C)c1-n1cc(C(F)(F)F)cn1 (single isomer, unassigned; isomer 1) [Example 170, (3-(6-((cyclopentyl(3,5-dimethyl-4-(4-(trifluoromethyl)-1H-pyrazol-1-yl)phenyl)methyl)amino)nicotinamido)propanoic acid, Isomer 1] | 1300 nM | 224 nM |
| O=C(O)CCNC(=O)c1ccc([C@H](CCC(F)(F)F)Nc2ccc(-n3cc(C(F)(F)F)cn3)nc2)cc1 (single isomer, unassigned; isomer 1) [Example 172, N-{4-[4,4,4-trifluoro-1-({6-[4-(trifluoromethyl)-1H-pyrazol-1-yl]pyridin-3-yl}amino)butyl]benzoyl}-beta-alanine, Isomer 1] | 59.9 nM | 8.18 nM |
| CC1(C)CC([C@H](Nc2ccc(-n3cc(C4CC4)cn3)nc2)c2ccc(C(=O)NCCC(=O)O)cc2)C1 (single isomer, unassigned; isomer 1) [Example 174, N-{-4-[{[6-(4-cyclopropyl-1H-pyrazol-1-yl)pyridin-3-yl]amino}(3,3-dimethylcyclobutyl)methyl]benzoyl}-beta-alanine, Isomer 1] | 252 nM | 57 nM |
| CC(C)(C)[C@H](Nc1ccc(-n2cc(C(F)(F)F)cn2)nc1)c1ccc(C(=O)NCCC(=O)O)cc1 (single isomer, unassigned; isomer 1) [Example 179, 3-(4-(2,2-dimethyl-1-((6-(4-(trifluoromethyl)-1H-pyrazol-1-yl)pyridin-3-yl)amino)propyl)benzamido)propanoic acid, Isomer 1] | 134 nM | 22.1 nM |
| CC(C)(C)[C@H](Nc1ccc(-n2cnc(C(F)(F)F)c2)nc1)c1ccc(C(=O)NCCC(=O)O)cc1 (single isomer, unassigned; isomer 1) [Example 182, 3-(4-(2,2-dimethyl-1-((6-(4-(trifluoromethyl)-1H-imidazol-1-yl)pyridin-3-yl)amino)propyl)benzamido)propanoic acid, Isomer 1] | 424 nM | 156 nM |
| Cc1nn(-c2ccc(N[C@H](c3ccc(C(=O)NCCC(=O)O)cc3)C3CCCC3)cn2)cc1Cl (single isomer, unassigned; isomer 1) [Example 191, 3-(4-((6-(4-chloro-3-methyl-1H-pyrazol-1-yl)pyridin-3-ylamino)(cyclopentyl)methyl)benzamido)propanoic acid, Isomer 1] | 11.7 nM | 29.3 nM |
| CC1(C)CC(C(Nc2cnc(-n3cc(C(F)(F)F)cn3)nc2)c2ccc(C(=O)NCCC(=O)O)cc2)C1 (single isomer, unassigned; isomer 2) [Example 158, 3-(4-((3,3-dimethylcyclobutyl)(2-(4-(trifluoromethyl)-1H-pyrazol-1-yl)pyrimidin-5-ylamino)methyl)benzamido)propanoic acid, Isomer 2] | 155 nM | 41 nM |
| CCCC(Nc1ccc(-n2cc(-c3ccccc3)cn2)nc1)c1ccc(C(=O)NCCC(=O)O)cc1 (single isomer, unassigned; isomer 2) [Example 161, 3-(4-(1-(6-(4-phenyl-1H-pyrazol-1-yl)pyridine-3-ylamino)butyl)benzamido)propanoic acid, Isomer 2] | 9.49 nM | 25.7 nM |
| CCCC(Nc1ccc(-n2cc(CC)c(C)n2)nc1)c1ccc(C(=O)NCCC(=O)O)cc1 (single isomer, unassigned; isomer 2) [Example 167, 3-(4-(1-(6-(4-ethyl-3-methyl-1H-pyrazol-1-yl)pyridin-3-ylamino)butyl)benzamido)propanoic acid, Isomer 2] | 1140 nM | 414 nM |
| Cc1cc(C(Nc2ccc(C(=O)NCCC(=O)O)cn2)C2CCCC2)cc(C)c1-n1cc(C(F)(F)F)cn1 (single isomer, unassigned; isomer 2) [Example 171, 3-(6-((cyclooentyl(3,5-dimethyl-4-(4-(trifluoromethyl)-1H-pyrazol-1-yl)phenyl)methyl)amino)nicotinamido)propanoic acid, Isomer 2] | 150 nM | 28 nM |
| O=C(O)CCNC(=O)c1ccc([C@H](CCC(F)(F)F)Nc2ccc(-n3cc(C(F)(F)F)cn3)nc2)cc1 (single isomer, unassigned; isomer 2) [Example 173, N-{4-[4,4,4-trifluoro-1-({6-[4-(trifluoromethyl)-1H-pyrazol-1-yl]pyridin-3-yl}amino)butyl]benzoyl}-beta-alanine, Isomer 2] | 641 nM | 26.6 nM |
| CC1(C)CC([C@H](Nc2ccc(-n3cc(C4CC4)cn3)nc2)c2ccc(C(=O)NCCC(=O)O)cc2)C1 (single isomer, unassigned; isomer 2) [Example 175, N-{-4-[{[6-(4-cyclopropyl-1H-pyrazol-1-yl)pyridin-3-yl]amino}(3,3-dimethylcyclobutyl)methyl]benzoyl}-beta-alanine, Isomer 2] | 10.5 nM | 28.7 nM |
| CC(C)(C)[C@H](Nc1ccc(-n2cc(C(F)(F)F)cn2)nc1)c1ccc(C(=O)NCCC(=O)O)cc1 (single isomer, unassigned; isomer 2) [Example 180, 3-(4-(2,2-dimethyl-1-((6-(4-(trifluoromethyl)-1H-pyrazol-1-yl)pyridin-3-yl)amino)propyl)benzamido)propanoic acid, Isomer 2] | 45 nM | 10.3 nM |
| CC(C)(C)[C@H](Nc1ccc(-n2cnc(C(F)(F)F)c2)nc1)c1ccc(C(=O)NCCC(=O)O)cc1 (single isomer, unassigned; isomer 2) [Example 183, 3-(4-(2,2-dimethyl-1-((6-(4-(trifluoromethyl)-1H-imidazol-1-yl)pyridin-3-yl)amino)propyl)benzamido)propanoic acid, Isomer 2] | 154 nM | 53.5 nM |
| Cc1nn(-c2ccc(N[C@H](c3ccc(C(=O)NCCC(=O)O)cc3)C3CCCC3)cn2)cc1Cl (single isomer, unassigned; isomer 2) [Example 192, 3-(4-((6-(4-chloro-3-methyl-1H-pyrazol-1-yl)pyridin-3-ylamino)(cyclopentyl)methyl)benzamido)propanoic acid, Isomer 2] | 88.5 nM | 50.3 nM |
| CC(C)c1cn(-c2ccc(NC(c3ccc(C(=O)NCCC(=O)O)cc3)C3CCCC3)cn2)cn1 (centres unmarked) [Example 123, 3-(4-(cyclopentyl(6-(4-isopropyl-1H-imidazol-1-yl)pyridin-3-ylamino)methyl)benzamido)propanoic acid] | 106 nM | 88.4 nM |
| CCCC(Oc1ccc(-n2cc3cccc(C)c3n2)cc1)c1ccc(C(=O)NCCC(=O)O)cc1 (centres unmarked) [Example 125, 3-(4-(1-(4-(7-methyl-2H-indazol-2-yl)phenoxy)butyl)benzamido)propanoic acid] | 144 nM | 98.2 nM |
| CCCC(Oc1ccc(-n2cc3ccc(C)cc3n2)cc1)c1ccc(C(=O)NCCC(=O)O)cc1 (centres unmarked) [Example 126, 3-(4-(1-(4-(6-methyl-2H-indazol-2-yl)phenoxy)butyl)benzamido)propanoic acid] | 212 nM | 161 nM |
| CCCC(Oc1ccc(-n2cc3c(C)cccc3n2)cc1)c1ccc(C(=O)NCCC(=O)O)cc1 (centres unmarked) [Example 127, 3-(4-(1-(4-(4-methyl-2H-indazol-2-yl)phenoxy)butyl)benzamido)propanoic acid] | 202 nM | 316 nM |
| CCCC(Oc1ccc(-n2cc3cc(C)ccc3n2)cc1)c1ccc(C(=O)NCCC(=O)O)cc1 (centres unmarked) [Example 128, 3-(4-(1-(4-(5-methyl-2H-indazol-2-yl)phenoxy)butyl)benzamido)propanoic acid] | 268 nM | 208 nM |
| CCCC(Oc1cc(C)c(-n2cc(Cl)cn2)c(C)c1)c1ccc(C(=O)NCCC(=O)O)cc1 (centres unmarked) [Example 130, (+\−)-3-(4-(1-(4-(4-chloro-1H-pyrazol-1-yl)-3,5-dimethylphenoxy)butyl)benzamido)propanoic acid] | 195 nM | 116 nM |
| Cc1cc(OC(c2ccc(C(=O)NCCC(=O)O)cc2)C2CCCC2)cc(C)c1-n1cnc(C(F)(F)F)c1 (centres unmarked) [Example 131, (+\−)-3-(4-(cyclopentyl(3,5-dimethyl-4-(4-(trifluoromethyl)-1H-imidazol-1-yl)phenoxy)methyl)benzamido)propanoic acid] | 247 nM | 51 nM |
| CCCC(Nc1ccc(-n2cc(-c3ccccc3)cn2)nc1)c1ccc(C(=O)NCCC(=O)O)cn1 (centres unmarked) [Example 132, (+\−)-3-(6-(1-(6-(4-phenyl-1H-pyrazol-1-yl)pyridin-3-ylamino)butyl)nicotinamido)propanoic acid] | 153 nM | 132 nM |
